The text below walks through data of ChEMBL document CHEMBL5620355, “Discovery of intracellular self-assembly protein degraders driven by tumor-specific activatable bioorthogonal reaction” (Eur J Med Chem, 2023).

pIC50: −log10 of the molar value. Activity calls are given as the source filed them. The calls are words filed in the database; no cut-off is given here.

One series relates to HEK293. Description: Cytotoxicity against HEK293 cells at low concentration incubated for 48 hrs in presence of 4-(4-(3-(4-chloro-3-(trifluoromethyl)phenyl)ureido)phenoxy)-N-(prop-2-yn-1-yl)picolinamide by MTT assay. The series is classed as toxicity, cell-based. The settings on record: human, hek293, 48 h.
The target of series [1] is Platelet-derived growth factor receptor beta (Homo sapiens) (UniProt P09619). Description: Induction of PDGFR-beta degradation in human U87 cells at 10 uM incubated for 48 hrs in presence of 4-(4-(3-(4-chloro-3-(trifluoromethyl)phenyl)ureido)phenoxy)-N-(prop-2-yn-1-yl)picolinamide by Western blot analysis. The class given is cell-based.
Series [2] deals with U-87 MG. Description: Induction of apoptosis in human U87 cells assessed as necrotic cells at 20 uM incubated for 48 hrs in presence of 4-(4-(3-(4-chloro-3-(trifluoromethyl)phenyl)ureido)phenoxy)-N-(prop-2-yn-1-yl)picolinamide by Annexin V-FLTC/PI staining based flow cytometry (reference value: 0.60 %). The class given is functional, U-87MG ATCC.
Series [3] relates to U-87 MG. Description: Induction of apoptosis in human U87 cells assessed as early apoptotic cells at 0.1 uM incubated for 48 hrs in presence of 4-(4-(3-(4-chloro-3-(trifluoromethyl)phenyl)ureido)phenoxy)-N-(prop-2-yn-1-yl)picolinamide by Annexin V-FLTC/PI staining based flow cytometry (reference value: 8.95 %). The series is classed as functional, U-87MG ATCC.
Series [4] deals with U-87 MG. Description: Induction of apoptosis in human U87 cells assessed as late apoptotic cells at 5 uM incubated for 48 hrs in presence of 4-(4-(3-(4-chloro-3-(trifluoromethyl)phenyl)ureido)phenoxy)-N-(prop-2-yn-1-yl)picolinamide by Annexin V-FLTC/PI staining based flow cytometry (reference value: 3.71 %). The series is classed as functional, U-87MG ATCC.
Series [5] has as its system U-87 MG. Description: Induction of apoptosis in human U87 cells assessed as late apoptotic cells at 20 uM incubated for 48 hrs in presence of 4-(4-(3-(4-chloro-3-(trifluoromethyl)phenyl)ureido)phenoxy)-N-(prop-2-yn-1-yl)picolinamide by Annexin V-FLTC/PI staining based flow cytometry (reference value: 3.71 %). The series is classed as functional, U-87MG ATCC.
Series [6] concerns U-87 MG. Description: Induction of apoptosis in human U87 cells assessed as necrotic cells at 1 uM incubated for 48 hrs in presence of 4-(4-(3-(4-chloro-3-(trifluoromethyl)phenyl)ureido)phenoxy)-N-(prop-2-yn-1-yl)picolinamide by Annexin V-FLTC/PI staining based flow cytometry (reference value: 0.60 %). The series is classed as functional, U-87MG ATCC.
Series [7] is described as follows: Stability of compound in H2O by HPLC analysis. The series is classed as physicochemical.
Series [8] concerns U-87 MG. Description: Induction of apoptosis in human U87 cells assessed as necrotic cells at 5 uM incubated for 48 hrs in presence of 4-(4-(3-(4-chloro-3-(trifluoromethyl)phenyl)ureido)phenoxy)-N-(prop-2-yn-1-yl)picolinamide by Annexin V-FLTC/PI staining based flow cytometry (reference value: 0.60 %). The series is classed as functional, U-87MG ATCC.
For series [9], the system named is U-87 MG. Description: Induction of apoptosis in human U87 cells assessed as viable cells at 1 uM incubated for 48 hrs in presence of 4-(4-(3-(4-chloro-3-(trifluoromethyl)phenyl)ureido)phenoxy)-N-(prop-2-yn-1-yl)picolinamide by Annexin V-FLTC/PI staining based flow cytometry (reference value: 86.74 %). The class given is functional, U-87MG ATCC. The conditions noted are these: read-out: Activity.

For a further series, the system named is A549. Description: Antiproliferative activity against human A549 cells incubated for 48 hrs in presence of (2S,4R)-1-((S)-2-(5-azidopentanamido)-3,3-dimethylbutanoyl)-4-hydroxy-N-(4-(4-methylthiazol-5-yl)benzyl)pyrrolidine-2-carboxamide by MTT assay. The series is classed as functional, cell-based. The conditions noted are these: A549, 48 h.
The target in series [10] is Serine/threonine-protein kinase B-raf (Homo sapiens) (UniProt P15056). Description: Induction of BRAF degradation in human U87 cells upto 10 uM incubated for 48 hrs by Western blot analysis. The class given is cell-based.
The subject of series [11] is U-87 MG. Description: Induction of apoptosis in human U87 cells assessed as necrotic cells at 0.1 uM incubated for 48 hrs in presence of (2S,4R)-1-((S)-2-(5-azidopentanamido)-3,3-dimethylbutanoyl)-4-hydroxy-N-(4-(4-methylthiazol-5-yl)benzyl)pyrrolidine-2-carboxamide by Annexin V-FLTC/PI staining based flow cytometry (reference value: 0.60 %). The class given is functional, U-87MG ATCC.

Series [12] deals with Platelet-derived growth factor receptor beta (Homo sapiens) (UniProt P09619). Description: Induction of PDGFR-beta degradation in human U87 cells at 10 uM incubated for 48 hrs in presence of 4-azido-N-(2-(2,6-dioxopiperidin-3-yl)-1,3-dioxoisoindolin-4-yl)butanamide by Western blot analysis. The class given is cell-based.
Series [13] concerns U-87 MG. Description: Induction of apoptosis in human U87 cells assessed as late apoptotic cells at 20 uM incubated for 48 hrs in presence of (2S,4R)-1-((S)-2-(5-azidopentanamido)-3,3-dimethylbutanoyl)-4-hydroxy-N-(4-(4-methylthiazol-5-yl)benzyl)pyrrolidine-2-carboxamide by Annexin V-FLTC/PI staining based flow cytometry (reference value: 3.71 %). The series is classed as functional, U-87MG ATCC.

The test system of series [14] is U-87 MG. Description: Induction of cell cycle arrest at S phase in human U87 cells incubated for 48 hrs in presence of (2S,4R)-1-((S)-2-(5-azidopentanamido)-3,3-dimethylbutanoyl)-4-hydroxy-N-(4-(4-methylthiazol-5-yl)benzyl)pyrrolidine-2-carboxamide by PI staining based flow cytometry. The settings on record: U-87MG ATCC, dose 0.1-1 µM. The class given is functional.

The subject of series [15] is U-87 MG. Description: Induction of apoptosis in human U87 cells assessed as necrotic cells at 1 uM incubated for 48 hrs in presence of (2S,4R)-1-((S)-2-(5-azidopentanamido)-3,3-dimethylbutanoyl)-4-hydroxy-N-(4-(4-methylthiazol-5-yl)benzyl)pyrrolidine-2-carboxamide by Annexin V-FLTC/PI staining based flow cytometry (reference value: 0.60 %). The class given is functional, U-87MG ATCC.

Series [16] concerns U-87 MG. Description: Induction of apoptosis in human U87 cells assessed as late apoptotic cells at 1 uM incubated for 48 hrs in presence of (2S,4R)-1-((S)-2-(5-azidopentanamido)-3,3-dimethylbutanoyl)-4-hydroxy-N-(4-(4-methylthiazol-5-yl)benzyl)pyrrolidine-2-carboxamide by Annexin V-FLTC/PI staining based flow cytometry (reference value: 3.71 %). The series is classed as functional, U-87MG ATCC.

The subject of series [17] is U-87 MG. Description: Induction of apoptosis in human U87 cells assessed as early apoptotic cells at 0.1 uM incubated for 48 hrs in presence of (2S,4R)-1-((S)-2-(5-azidopentanamido)-3,3-dimethylbutanoyl)-4-hydroxy-N-(4-(4-methylthiazol-5-yl)benzyl)pyrrolidine-2-carboxamide by Annexin V-FLTC/PI staining based flow cytometry (reference value: 8.95 %). The series is classed as functional, U-87MG ATCC.

Series [18] relates to U-87 MG. Description: Induction of apoptosis in human U87 cells assessed as viable cells at 1 uM incubated for 48 hrs in presence of (2S,4R)-1-((S)-2-(5-azidopentanamido)-3,3-dimethylbutanoyl)-4-hydroxy-N-(4-(4-methylthiazol-5-yl)benzyl)pyrrolidine-2-carboxamide by Annexin V-FLTC/PI staining based flow cytometry (reference value: 86.74 %). The settings on record: read-out: Activity. The series is classed as functional, U-87MG ATCC.

Series [19] deals with U-87 MG. Description: Induction of apoptosis in human U87 cells assessed as necrotic cells at 5 uM incubated for 48 hrs in presence of (2S,4R)-1-((S)-2-(5-azidopentanamido)-3,3-dimethylbutanoyl)-4-hydroxy-N-(4-(4-methylthiazol-5-yl)benzyl)pyrrolidine-2-carboxamide by Annexin V-FLTC/PI staining based flow cytometry (reference value: 0.60 %). The class given is functional, U-87MG ATCC.

The target of series [20] is Vascular endothelial growth factor receptor 2 (Homo sapiens) (UniProt P35968). Description: Induction of VEGFR2 degradation in human U87 cells upto 10 uM incubated for 48 hrs by Western blot analysis. The class given is cell-based.
Chain of Vascular endothelial growth factor receptor 2 (Homo sapiens) (P35968 whole entry): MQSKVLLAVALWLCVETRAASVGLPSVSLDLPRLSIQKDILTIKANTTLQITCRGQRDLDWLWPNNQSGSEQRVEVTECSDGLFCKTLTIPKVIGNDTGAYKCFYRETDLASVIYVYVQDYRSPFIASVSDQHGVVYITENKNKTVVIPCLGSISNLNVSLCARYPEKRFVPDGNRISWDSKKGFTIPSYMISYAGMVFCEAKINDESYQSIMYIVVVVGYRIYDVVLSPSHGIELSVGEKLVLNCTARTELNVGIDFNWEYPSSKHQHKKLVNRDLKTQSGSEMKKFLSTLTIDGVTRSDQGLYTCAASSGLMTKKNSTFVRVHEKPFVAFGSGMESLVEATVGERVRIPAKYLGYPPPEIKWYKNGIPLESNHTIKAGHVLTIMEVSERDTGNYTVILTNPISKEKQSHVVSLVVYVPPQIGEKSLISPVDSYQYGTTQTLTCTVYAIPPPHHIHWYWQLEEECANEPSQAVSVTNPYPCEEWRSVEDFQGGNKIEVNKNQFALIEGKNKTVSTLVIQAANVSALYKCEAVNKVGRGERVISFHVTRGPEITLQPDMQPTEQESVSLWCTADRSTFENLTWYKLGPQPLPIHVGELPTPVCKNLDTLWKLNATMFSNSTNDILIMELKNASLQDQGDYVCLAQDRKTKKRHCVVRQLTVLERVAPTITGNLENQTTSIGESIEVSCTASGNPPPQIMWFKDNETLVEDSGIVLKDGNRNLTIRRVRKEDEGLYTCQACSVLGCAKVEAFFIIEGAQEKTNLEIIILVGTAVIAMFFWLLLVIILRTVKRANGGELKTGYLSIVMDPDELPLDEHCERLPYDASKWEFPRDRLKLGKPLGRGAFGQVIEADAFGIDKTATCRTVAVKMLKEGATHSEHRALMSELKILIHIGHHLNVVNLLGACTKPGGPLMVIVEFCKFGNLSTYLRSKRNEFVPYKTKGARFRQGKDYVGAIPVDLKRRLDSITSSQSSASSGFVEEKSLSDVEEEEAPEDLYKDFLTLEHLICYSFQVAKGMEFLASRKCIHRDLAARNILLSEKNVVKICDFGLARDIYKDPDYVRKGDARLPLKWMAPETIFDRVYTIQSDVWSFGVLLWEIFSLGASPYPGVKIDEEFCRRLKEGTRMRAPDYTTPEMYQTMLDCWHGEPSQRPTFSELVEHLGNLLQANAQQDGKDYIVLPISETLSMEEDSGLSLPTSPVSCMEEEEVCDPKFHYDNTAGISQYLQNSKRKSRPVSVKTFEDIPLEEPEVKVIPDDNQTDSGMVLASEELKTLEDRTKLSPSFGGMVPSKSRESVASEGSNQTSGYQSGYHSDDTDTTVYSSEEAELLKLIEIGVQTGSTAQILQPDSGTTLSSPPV

Chain of Platelet-derived growth factor receptor beta (Homo sapiens) (P09619 whole entry): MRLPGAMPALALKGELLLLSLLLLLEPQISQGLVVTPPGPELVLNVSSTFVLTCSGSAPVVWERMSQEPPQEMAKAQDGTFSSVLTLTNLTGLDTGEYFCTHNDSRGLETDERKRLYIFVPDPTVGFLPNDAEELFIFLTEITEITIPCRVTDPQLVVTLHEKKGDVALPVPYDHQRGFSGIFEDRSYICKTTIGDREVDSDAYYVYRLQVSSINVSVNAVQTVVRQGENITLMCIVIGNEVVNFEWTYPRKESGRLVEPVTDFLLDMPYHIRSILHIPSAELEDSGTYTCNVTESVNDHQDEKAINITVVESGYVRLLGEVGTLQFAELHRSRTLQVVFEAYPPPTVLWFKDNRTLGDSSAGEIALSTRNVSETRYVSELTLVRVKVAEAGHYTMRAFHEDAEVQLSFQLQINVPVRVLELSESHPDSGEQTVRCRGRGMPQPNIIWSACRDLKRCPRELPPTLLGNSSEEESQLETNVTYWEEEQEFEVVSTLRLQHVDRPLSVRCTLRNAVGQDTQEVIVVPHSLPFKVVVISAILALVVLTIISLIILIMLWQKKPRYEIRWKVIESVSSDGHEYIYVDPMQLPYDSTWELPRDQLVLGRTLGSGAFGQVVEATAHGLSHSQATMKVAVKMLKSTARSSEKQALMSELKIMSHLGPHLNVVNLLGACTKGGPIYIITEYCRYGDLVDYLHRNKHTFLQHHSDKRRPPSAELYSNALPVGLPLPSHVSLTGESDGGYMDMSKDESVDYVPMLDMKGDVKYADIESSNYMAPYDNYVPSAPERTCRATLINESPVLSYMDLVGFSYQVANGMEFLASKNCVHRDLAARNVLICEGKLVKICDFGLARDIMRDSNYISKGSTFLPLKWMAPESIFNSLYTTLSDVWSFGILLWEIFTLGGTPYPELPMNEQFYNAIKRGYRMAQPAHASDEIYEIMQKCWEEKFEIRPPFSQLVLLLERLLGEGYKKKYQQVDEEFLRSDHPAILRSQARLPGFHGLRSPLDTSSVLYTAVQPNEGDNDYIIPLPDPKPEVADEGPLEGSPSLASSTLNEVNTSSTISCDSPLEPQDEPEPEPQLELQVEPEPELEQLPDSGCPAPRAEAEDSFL
Chain of Serine/threonine-protein kinase B-raf (Homo sapiens) (P15056 whole entry): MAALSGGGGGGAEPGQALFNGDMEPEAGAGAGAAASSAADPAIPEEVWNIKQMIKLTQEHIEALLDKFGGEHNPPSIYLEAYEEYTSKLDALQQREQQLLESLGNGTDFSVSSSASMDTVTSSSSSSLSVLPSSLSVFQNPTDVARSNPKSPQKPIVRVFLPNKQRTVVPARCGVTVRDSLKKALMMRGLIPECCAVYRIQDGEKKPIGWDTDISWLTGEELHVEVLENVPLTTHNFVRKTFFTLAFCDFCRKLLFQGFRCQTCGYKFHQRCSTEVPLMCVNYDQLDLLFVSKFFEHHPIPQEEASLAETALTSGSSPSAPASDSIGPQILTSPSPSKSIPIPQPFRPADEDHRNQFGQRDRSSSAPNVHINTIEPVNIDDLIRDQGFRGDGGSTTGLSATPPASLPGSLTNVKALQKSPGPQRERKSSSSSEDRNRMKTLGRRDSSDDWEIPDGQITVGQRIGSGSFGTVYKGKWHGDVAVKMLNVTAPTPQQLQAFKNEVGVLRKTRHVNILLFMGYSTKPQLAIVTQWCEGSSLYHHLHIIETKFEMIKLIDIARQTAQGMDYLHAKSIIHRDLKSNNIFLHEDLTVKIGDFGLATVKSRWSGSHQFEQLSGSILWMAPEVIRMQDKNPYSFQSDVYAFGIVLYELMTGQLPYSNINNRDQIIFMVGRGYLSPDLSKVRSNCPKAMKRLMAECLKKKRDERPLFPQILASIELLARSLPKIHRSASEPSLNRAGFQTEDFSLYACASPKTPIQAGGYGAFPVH

For the molecule `[N-]=[N+]=NCCCC(=O)Nc1cccc2c1C(=O)N(C1CCC(=O)NC1=O)C2=O` (configuration not stated), the Activity entry in the series on HEK293 was “Non-Toxic”; in the series on U-87 MG [2], 6.36%; in the series with U-87 MG [3] it was 10.27%; in the series on U-87 MG [4], 73.25%; in the series with U-87 MG [5] it was 79.04%; in the series with U-87 MG [6] it was 1.26%. Also, the Activity with U-87 MG [8] turned out to be 25.22%. Further, the result in series [1] was Active. For the same molecule, the Stability result in series [7] is “Stable”. Besides, the viability at 1 µM with U-87 MG [9] was 81.6%.

For `C#CCNC(=O)c1cc(Oc2ccc(NC(=O)Nc3ccc(Cl)c(C(F)(F)F)c3)cc2)ccn1`, the pIC50 in the series with A549 is 5.97. Further, the outcome in [10] and in [20] was inactive. In addition, the Activity in the series with U-87 MG [11] was 1.02%; with U-87 MG [13], 79.04%; with U-87 MG [14], “Dose-Dependent Effect”; in the series with U-87 MG [15], 1.26%; with U-87 MG [16], 5.43%; with U-87 MG [17], 10.27%. Also, the Activity with U-87 MG [19] is on record as 25.22%. The outcome in series [12] was Active. The viability at 1 µM with U-87 MG [18] is 81.6%.
